Numbers after ± are expanded uncertainties.
Details: Liquid, Frequency=3 MHz, Pulse-echo method

CC(C)(C)c1ccccc1 [(1,1-dimethylethyl)benzene]
speed of sound [m/s]
Details	298.15 K	313.15 K	333.15 K	353.15 K	373.15 K	393.15 K	413.15 K	433.15 K
100 kPa	1316.4 ± 1.5	1255.3 ± 1.4	1176.9 ± 1.3	1101.8 ± 1.2	1029.9 ± 1.2	959.3 ± 1.1	890.9 ± 1	823.7 ± 0.9
20100 kPa	1415.8 ± 1.6	1360.3 ± 1.5	1290.1 ± 1.4	1223.5 ± 1.4	1161.2 ± 1.3	1101.1 ± 1.2	1042.6 ± 1.2	987.2 ± 1.1
40100 kPa	1501.7 ± 1.7	1450.3 ± 1.6	1385.4 ± 1.5	1324.4 ± 1.5	1267.7 ± 1.4	1213.3 ± 1.3	1161.1 ± 1.3	1112.1 ± 1.2
60100 kPa	1578.5 ± 1.7	1529.8 ± 1.7	1469 ± 1.6	1411.8 ± 1.6	1359 ± 1.5	1308.5 ± 1.5	1260.2 ± 1.4	1215.1 ± 1.4
80100 kPa	1647.9 ± 1.8	1601.7 ± 1.8	1543.9 ± 1.7	1489.6 ± 1.6	1439.6 ± 1.6	1392 ± 1.5	1346.6 ± 1.5	1304.3 ± 1.4
100100 kPa	1711.7 ± 1.9	1667.3 ± 1.8	1612.5 ± 1.8	1560.2 ± 1.7	1512.4 ± 1.7	1466.9 ± 1.6	1423.8 ± 1.6	1383.6 ± 1.5

CC(C)c1ccccc1 [isopropylbenzene]
speed of sound [m/s]
Details	298.15 K	313.15 K	333.15 K	353.15 K	373.15 K	393.15 K	413.15 K	433.15 K
100 kPa	1309.1 ± 1.6	1247.6 ± 1.5	1168.5 ± 1.5	1091.8 ± 1.4	1017.8 ± 1.3	945.6 ± 1.3	875 ± 1.2	–
10100 kPa	–	–	–	–	–	–	–	897.7 ± 1.2
20100 kPa	1406.9 ± 1.7	1351.3 ± 1.6	1280.5 ± 1.6	1213.2 ± 1.5	1149.2 ± 1.5	1088.1 ± 1.4	1029.6 ± 1.3	974 ± 1.3
40100 kPa	1491.7 ± 1.8	1440 ± 1.7	1374.7 ± 1.7	1313.2 ± 1.6	1255.1 ± 1.6	1200.1 ± 1.5	1147.8 ± 1.5	1098.9 ± 1.4
60100 kPa	1566.8 ± 1.9	1518.3 ± 1.8	1457.2 ± 1.7	1399.6 ± 1.7	1345.6 ± 1.6	1294.7 ± 1.6	1246.5 ± 1.5	1201.3 ± 1.5
80100 kPa	1634.8 ± 1.9	1588.9 ± 1.9	1530.9 ± 1.8	1476.5 ± 1.8	1425.6 ± 1.7	1377.6 ± 1.7	1332.1 ± 1.6	1289.9 ± 1.6
100100 kPa	1697.4 ± 2	1653.3 ± 1.9	1598 ± 1.9	1546 ± 1.8	1497.4 ± 1.8	1451.6 ± 1.7	1408.6 ± 1.7	1368.6 ± 1.7
